Assay results taken from ChEMBL document CHEMBL5291721, “A preclinical secondary pharmacology resource illuminates target-adverse drug reaction associations of marketed drugs” (Nat Commun, 2023).

Legend:
Acetylcholinesterase = Acetylcholinesterase (Homo sapiens, UniProt P22303); format: functional
[1] = molecular target: T1, Alpha-2A adrenergic receptor (Homo sapiens, UniProt P08913)
T1 sequence (P08913 whole entry): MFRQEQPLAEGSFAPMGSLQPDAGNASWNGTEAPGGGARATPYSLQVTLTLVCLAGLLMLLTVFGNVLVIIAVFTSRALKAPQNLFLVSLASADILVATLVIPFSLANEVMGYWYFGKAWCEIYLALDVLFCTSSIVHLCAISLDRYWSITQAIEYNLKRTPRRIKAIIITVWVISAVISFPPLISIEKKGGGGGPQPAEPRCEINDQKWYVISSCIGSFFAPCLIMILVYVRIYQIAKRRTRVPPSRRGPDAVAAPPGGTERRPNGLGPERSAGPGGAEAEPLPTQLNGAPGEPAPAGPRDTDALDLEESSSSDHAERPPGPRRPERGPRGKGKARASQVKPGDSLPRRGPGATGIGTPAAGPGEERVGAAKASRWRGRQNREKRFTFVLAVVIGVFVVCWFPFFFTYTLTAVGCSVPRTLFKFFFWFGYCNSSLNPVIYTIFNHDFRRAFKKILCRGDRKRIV

[2] = molecular target: T2, Muscarinic acetylcholine receptor M2 (Homo sapiens, UniProt P08172)
T2 sequence (P08172 whole entry): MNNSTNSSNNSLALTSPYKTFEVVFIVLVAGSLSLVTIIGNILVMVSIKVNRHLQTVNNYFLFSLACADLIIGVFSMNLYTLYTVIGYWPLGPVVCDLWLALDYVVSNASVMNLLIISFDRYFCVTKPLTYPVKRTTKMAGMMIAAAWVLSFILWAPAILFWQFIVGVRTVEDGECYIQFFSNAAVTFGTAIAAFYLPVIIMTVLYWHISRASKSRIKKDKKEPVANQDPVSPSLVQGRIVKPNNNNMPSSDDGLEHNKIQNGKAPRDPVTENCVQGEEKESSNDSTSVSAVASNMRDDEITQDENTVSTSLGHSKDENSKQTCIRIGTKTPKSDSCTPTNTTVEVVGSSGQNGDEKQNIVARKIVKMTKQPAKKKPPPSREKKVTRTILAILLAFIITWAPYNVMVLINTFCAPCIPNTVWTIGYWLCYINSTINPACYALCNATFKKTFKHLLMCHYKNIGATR

Prothrombin = Prothrombin (Homo sapiens, UniProt P00734); format: functional
Histamine H3 receptor = Histamine H3 receptor (Homo sapiens, UniProt Q9Y5N1)
[3] = molecular target: T3, 5-hydroxytryptamine receptor 1A (Homo sapiens, UniProt P08908)
T3 sequence (P08908 whole entry): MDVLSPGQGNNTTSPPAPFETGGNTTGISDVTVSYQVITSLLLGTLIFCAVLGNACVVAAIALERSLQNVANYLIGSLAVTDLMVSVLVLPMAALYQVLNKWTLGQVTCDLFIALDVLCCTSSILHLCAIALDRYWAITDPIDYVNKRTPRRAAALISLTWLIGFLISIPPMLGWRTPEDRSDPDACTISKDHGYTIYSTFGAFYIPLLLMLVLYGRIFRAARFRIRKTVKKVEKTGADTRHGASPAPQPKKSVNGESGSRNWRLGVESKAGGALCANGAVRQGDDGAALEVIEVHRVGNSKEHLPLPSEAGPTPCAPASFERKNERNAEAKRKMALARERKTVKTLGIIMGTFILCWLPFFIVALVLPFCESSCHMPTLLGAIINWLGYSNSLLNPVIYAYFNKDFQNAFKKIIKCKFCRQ

[4] = molecular target: 5-hydroxytryptamine receptor 2B (Homo sapiens, UniProt P41595); format: functional, cell-based
[5] = molecular target: Voltage-gated inwardly rectifying potassium channel KCNH2 (Homo sapiens, UniProt Q12809); format: functional
[6] = molecular target: Vascular endothelial growth factor receptor 2 (Homo sapiens, UniProt P35968); format: functional
[7] = molecular target: T4, Amine oxidase [flavin-containing] A (Homo sapiens, UniProt P21397); format: functional
T4 sequence (P21397 whole entry): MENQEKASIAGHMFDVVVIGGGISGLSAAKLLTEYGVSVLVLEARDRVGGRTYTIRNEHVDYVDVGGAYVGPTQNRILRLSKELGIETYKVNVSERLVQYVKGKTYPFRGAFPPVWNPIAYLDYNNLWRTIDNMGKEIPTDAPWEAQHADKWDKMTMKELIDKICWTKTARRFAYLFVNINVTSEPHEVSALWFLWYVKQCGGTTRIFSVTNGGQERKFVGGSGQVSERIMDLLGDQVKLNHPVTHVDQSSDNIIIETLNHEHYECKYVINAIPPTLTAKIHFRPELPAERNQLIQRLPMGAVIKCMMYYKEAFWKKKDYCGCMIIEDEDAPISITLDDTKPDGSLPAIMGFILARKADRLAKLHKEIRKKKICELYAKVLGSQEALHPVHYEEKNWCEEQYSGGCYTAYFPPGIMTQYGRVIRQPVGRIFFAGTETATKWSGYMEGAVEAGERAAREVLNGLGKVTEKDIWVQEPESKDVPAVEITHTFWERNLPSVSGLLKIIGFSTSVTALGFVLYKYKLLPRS

[8] = molecular target: cGMP-inhibited 3',5'-cyclic phosphodiesterase 3A (Homo sapiens, UniProt Q14432); format: functional
[9] = molecular target: 3',5'-cyclic-AMP phosphodiesterase 4A (Homo sapiens, UniProt P27815); format: functional
[10] = molecular target: Sodium-dependent dopamine transporter (Homo sapiens, UniProt Q01959)
Thromboxane A2 receptor [11] = molecular target: T5, Thromboxane A2 receptor (Homo sapiens, UniProt P21731); format: functional, cell-based
T5 sequence (P21731 whole entry): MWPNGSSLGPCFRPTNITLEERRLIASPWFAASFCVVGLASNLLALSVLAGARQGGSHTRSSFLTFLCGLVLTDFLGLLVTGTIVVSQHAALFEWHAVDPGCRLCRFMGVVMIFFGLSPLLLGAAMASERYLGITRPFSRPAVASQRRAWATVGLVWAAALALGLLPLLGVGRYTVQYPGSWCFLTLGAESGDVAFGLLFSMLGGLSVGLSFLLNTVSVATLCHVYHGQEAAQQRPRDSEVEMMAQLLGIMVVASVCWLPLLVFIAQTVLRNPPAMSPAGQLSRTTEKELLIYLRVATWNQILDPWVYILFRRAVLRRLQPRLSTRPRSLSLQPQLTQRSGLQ

Thromboxane A2 receptor [12] = molecular target: T5, Thromboxane A2 receptor; format: functional, cell-based; remark: listed apart in the source
[13] = molecular target: Gamma-aminobutyric acid receptor subunit alpha-1 (Rattus norvegicus, UniProt P62813)
Also: assay procedure not described here.

Chain of Acetylcholinesterase (P22303 whole entry): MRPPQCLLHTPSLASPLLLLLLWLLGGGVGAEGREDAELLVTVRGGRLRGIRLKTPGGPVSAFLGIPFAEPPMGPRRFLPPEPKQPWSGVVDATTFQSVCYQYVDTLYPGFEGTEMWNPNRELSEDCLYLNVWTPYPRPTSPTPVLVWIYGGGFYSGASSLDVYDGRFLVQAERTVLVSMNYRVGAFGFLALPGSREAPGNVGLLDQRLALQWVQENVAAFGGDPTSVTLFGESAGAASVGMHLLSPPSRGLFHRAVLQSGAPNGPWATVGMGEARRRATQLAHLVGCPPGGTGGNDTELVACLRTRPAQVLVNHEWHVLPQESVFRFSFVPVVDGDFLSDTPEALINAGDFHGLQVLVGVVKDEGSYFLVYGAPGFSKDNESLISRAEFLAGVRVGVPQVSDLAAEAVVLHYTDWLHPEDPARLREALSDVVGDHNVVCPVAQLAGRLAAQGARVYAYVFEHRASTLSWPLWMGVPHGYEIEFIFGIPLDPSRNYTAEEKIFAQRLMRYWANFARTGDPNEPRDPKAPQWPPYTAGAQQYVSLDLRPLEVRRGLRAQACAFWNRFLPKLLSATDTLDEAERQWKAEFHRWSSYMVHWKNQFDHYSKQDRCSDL
Chain of Voltage-gated inwardly rectifying potassium channel KCNH2 (Q12809 whole entry): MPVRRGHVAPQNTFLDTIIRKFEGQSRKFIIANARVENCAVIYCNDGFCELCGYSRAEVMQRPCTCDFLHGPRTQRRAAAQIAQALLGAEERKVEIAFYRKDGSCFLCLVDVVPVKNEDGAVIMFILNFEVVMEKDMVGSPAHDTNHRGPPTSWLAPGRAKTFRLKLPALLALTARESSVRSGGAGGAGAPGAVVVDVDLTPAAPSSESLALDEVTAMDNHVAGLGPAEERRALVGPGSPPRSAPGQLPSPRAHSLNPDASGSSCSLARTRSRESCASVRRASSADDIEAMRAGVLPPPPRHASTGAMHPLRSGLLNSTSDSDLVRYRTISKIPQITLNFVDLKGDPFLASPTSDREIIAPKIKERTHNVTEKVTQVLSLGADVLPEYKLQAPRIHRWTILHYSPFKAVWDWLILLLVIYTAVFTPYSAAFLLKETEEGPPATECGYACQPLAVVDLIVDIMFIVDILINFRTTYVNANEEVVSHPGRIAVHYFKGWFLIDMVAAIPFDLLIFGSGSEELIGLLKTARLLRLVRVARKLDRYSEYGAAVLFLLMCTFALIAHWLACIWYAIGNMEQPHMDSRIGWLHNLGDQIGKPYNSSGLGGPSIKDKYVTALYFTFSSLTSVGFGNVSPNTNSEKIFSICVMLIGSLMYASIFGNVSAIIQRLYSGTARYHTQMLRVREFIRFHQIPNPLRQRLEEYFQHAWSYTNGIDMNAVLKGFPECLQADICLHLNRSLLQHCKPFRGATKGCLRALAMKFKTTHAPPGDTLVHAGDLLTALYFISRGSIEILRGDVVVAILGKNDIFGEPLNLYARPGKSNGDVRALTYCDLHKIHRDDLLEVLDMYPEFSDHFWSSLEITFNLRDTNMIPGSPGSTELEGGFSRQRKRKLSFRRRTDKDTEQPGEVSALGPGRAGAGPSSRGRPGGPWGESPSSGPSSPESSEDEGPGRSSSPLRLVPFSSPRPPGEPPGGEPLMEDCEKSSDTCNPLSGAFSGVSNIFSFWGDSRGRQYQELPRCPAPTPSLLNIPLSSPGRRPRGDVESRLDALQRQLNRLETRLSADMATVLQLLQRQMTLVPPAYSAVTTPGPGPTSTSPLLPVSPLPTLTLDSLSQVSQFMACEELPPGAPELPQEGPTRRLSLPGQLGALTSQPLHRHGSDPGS
Chain of Vascular endothelial growth factor receptor 2 (P35968 whole entry): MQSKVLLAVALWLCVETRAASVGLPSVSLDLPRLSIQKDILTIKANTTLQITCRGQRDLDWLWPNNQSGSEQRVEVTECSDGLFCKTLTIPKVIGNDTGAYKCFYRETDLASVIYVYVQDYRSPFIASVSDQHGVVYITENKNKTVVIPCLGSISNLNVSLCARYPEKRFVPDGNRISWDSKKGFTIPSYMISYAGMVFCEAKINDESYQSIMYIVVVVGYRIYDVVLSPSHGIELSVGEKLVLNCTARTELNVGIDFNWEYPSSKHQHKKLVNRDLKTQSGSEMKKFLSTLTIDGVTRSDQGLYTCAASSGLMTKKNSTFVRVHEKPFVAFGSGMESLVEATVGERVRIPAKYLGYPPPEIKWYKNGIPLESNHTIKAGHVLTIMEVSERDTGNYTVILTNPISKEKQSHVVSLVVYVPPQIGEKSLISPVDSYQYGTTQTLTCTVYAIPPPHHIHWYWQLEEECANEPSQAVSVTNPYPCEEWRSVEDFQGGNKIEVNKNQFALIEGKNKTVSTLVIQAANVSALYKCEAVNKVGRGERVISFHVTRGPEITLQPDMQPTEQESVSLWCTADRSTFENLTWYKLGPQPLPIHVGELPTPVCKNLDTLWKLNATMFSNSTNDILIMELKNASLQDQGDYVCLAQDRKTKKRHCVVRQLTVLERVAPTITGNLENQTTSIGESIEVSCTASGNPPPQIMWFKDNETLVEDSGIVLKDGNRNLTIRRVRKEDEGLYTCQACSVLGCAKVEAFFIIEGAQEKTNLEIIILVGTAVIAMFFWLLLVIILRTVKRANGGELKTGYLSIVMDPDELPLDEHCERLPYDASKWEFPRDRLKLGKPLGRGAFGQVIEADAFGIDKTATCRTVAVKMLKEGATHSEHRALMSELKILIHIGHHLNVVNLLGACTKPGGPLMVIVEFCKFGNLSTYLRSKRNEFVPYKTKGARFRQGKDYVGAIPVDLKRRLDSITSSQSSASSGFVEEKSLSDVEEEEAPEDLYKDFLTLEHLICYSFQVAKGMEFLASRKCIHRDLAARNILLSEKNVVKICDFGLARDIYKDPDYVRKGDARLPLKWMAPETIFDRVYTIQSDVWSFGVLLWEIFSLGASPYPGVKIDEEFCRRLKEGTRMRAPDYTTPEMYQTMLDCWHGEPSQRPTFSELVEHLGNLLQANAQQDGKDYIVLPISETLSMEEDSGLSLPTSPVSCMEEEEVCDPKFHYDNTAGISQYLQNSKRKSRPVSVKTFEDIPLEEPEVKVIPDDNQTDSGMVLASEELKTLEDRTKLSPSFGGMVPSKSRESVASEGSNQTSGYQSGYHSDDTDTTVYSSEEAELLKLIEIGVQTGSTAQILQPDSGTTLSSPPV
Chain of 5-hydroxytryptamine receptor 2B (P41595 whole entry): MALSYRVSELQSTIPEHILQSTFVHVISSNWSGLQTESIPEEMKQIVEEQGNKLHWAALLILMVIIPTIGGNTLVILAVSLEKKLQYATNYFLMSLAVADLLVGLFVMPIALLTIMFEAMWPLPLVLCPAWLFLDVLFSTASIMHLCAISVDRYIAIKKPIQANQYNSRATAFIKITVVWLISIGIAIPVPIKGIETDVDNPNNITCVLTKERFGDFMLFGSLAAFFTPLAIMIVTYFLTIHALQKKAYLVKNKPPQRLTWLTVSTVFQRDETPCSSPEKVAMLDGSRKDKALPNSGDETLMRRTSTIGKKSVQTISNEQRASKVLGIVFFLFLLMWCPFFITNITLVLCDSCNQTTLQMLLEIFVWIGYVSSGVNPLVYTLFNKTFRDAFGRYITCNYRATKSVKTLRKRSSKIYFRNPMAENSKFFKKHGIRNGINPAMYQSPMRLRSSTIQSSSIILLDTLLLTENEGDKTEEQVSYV
Chain of cGMP-inhibited 3',5'-cyclic phosphodiesterase 3A (Q14432 whole entry): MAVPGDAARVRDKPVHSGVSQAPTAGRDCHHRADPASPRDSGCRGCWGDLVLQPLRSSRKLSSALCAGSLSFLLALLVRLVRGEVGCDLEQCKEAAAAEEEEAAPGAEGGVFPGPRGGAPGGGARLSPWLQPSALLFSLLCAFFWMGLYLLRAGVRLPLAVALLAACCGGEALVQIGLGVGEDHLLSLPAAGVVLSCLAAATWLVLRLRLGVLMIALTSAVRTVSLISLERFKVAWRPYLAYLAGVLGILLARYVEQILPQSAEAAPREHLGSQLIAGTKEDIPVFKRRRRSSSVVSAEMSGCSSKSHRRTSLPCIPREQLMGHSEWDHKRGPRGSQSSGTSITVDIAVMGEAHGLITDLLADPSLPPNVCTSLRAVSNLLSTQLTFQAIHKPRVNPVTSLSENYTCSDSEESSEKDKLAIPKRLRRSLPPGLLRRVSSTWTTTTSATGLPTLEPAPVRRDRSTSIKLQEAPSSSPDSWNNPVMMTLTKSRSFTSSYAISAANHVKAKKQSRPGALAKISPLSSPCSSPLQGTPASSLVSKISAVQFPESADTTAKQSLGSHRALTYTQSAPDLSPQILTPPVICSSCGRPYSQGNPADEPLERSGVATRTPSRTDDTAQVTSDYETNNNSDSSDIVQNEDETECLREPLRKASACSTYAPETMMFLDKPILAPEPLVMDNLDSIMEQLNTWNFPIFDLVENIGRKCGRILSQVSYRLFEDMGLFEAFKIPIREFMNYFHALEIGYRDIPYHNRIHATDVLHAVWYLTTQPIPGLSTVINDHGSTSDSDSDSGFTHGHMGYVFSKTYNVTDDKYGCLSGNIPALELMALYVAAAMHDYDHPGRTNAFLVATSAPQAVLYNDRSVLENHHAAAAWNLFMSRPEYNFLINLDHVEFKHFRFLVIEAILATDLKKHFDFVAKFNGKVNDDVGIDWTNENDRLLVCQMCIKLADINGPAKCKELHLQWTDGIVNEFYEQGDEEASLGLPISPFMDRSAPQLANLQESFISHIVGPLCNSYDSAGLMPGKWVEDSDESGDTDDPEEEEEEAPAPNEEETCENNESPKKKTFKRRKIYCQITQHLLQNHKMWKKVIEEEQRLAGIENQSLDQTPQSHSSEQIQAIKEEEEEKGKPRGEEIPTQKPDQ

Structure (SMILES)	AC50 (Acetylcholinesterase) [µM]	AC50 [1] [µM]	AC50 [2] [µM]	AC50 (Prothrombin) [µM]	AC50 (Histamine H3 receptor) [µM]	AC50 [3] [µM]	AC50 [4] [µM]	AC50 [5] [µM]	AC50 [6] [µM]	AC50 [7] [µM]	AC50 [8] [µM]	AC50 [9] [µM]	AC50 [10] [µM]	AC50 (Thromboxane A2 receptor [11]) [µM]	AC50 (Thromboxane A2 receptor [12]) [µM]	AC50 [13] [µM]
CC[N+](C)(CC)CCOC(=O)C(O)(c1ccccc1)C1CCCCC1 (stereo unspecified) [OXYPHENONIUM]	> 30	> 30	0.003	> 30	> 30	> 30	> 30	14	> 30	> 30	> 30	> 30	21.9	> 30	> 30	–
C[C@@H]1C[C@H]2[C@@H]3C[C@H](F)C4=CC(=O)C=C[C@]4(C)[C@H]3[C@@H](O)C[C@]2(C)[C@@]1(O)C(=O)CO [PARAMETHASONE]	> 30	> 30	> 30	> 30	> 30	> 30	> 30	> 30	> 30	> 30	> 30	> 30	> 30	> 30	> 30	–
N[C@@H](Cc1ccccc1)C(=O)O [PHENYLALANINE]	> 30	> 30	> 30	> 30	> 30	> 30	> 30	> 30	> 30	> 30	> 30	> 30	> 30	> 30	> 30	–
CCCn1cnc2c1c(=O)n(CCCCC(C)=O)c(=O)n2C [PROPENTOFYLLINE]	> 30	> 30	> 30	> 30	> 30	> 30	> 30	> 30	> 30	> 30	> 30	8.96	> 30	> 30	> 30	–
COC(=O)[C@H]1[C@H]2C[C@@H]3c4[nH]c5cc(OC)ccc5c4CCN3C[C@H]2C[C@@H](OC(=O)c2cc(OC)c(OC)c(OC)c2)[C@@H]1OC [RESERPINE]	> 30	> 30	> 30	> 30	> 30	> 30	> 30	1.46	> 30	> 30	> 3	> 3	29.3	> 30	> 30	> 10
Clc1ccc(C(Cn2ccnc2)OCc2csc3c(Cl)cccc23)c(Cl)c1 (stereo unspecified) [SERTACONAZOLE]	> 30	3.8	6.26	> 30	23.3	12.4	> 30	1.7	> 30	> 30	> 30	17.7	1.88	> 30	14.5	–
CC(OCCN1CCCCCC1)(c1ccccc1)c1ccc(Cl)cc1 (stereo unspecified) [SETASTINE]	9.61	7.86	0.393	> 30	23.2	9.59	> 30	0.14	> 30	> 30	> 30	> 30	2.98	> 30	8.8	–
CCCSc1nc(N[C@@H]2C[C@H]2c2ccc(F)c(F)c2)c2nnn([C@@H]3C[C@H](OCCO)[C@@H](O)[C@H]3O)c2n1 [TICAGRELOR]	> 30	> 30	> 30	> 30	> 30	> 30	> 30	27	> 30	> 30	17	21.3	0.425	> 30	6.38	–
c1ccc2c(SC3=NCCN3)c[nH]c2c1 [TINAZOLINE]	> 30	0.0098	> 30	> 30	> 30	0.19	> 30	> 30	> 30	15.9	> 30	> 30	> 30	> 30	> 30	–
Cc1ccc(C(=O)C(C)CN2CCCCC2)cc1 (stereo unspecified) [TOLPERISONE]	> 30	> 30	3.7	> 30	4.74	> 30	> 30	> 30	> 30	> 30	> 30	> 30	> 30	> 30	> 30	–
